{"source": "patent US4687773A", "about": "“(+)-N-N-propylnorapomorphine and selective limbic activity” (priority 1985, dated 1987)", "key": {"[1]": {"target": "T1, rat liver catechol O-methyl-transferase (COMT) (Rattus norvegicus, UniProt P22734)", "T1 construct": "partially purified rat liver catechol O-methyl-transferase (COMT); from tissue; host or cells: rat liver, ammonium sulfate precipitation and dialysis", "T1 sequence (P22734 1-221 isoform P22734-2)": "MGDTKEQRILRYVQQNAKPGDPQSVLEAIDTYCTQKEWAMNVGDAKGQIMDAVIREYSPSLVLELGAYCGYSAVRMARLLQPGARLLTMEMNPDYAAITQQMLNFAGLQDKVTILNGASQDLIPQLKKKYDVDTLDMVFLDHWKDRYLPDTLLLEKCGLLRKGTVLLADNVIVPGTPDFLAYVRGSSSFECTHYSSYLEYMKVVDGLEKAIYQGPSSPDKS", "assay": "Isomeric substrate selectivity for rat liver COMT", "format": "biochemical"}, "[2]": {"assay": "Catalepsy (latency to resume normal posture)", "format": "in vivo, rat", "details": "s.c., maximum 18.0", "protocol": "Catalepsy: This measure of muscle rigidity is assessed by having animals in abnormal body positions and timing their duration of maintaining these. This is done by placing rats on a wire grid placed at a 45° angle to the benchtop, or by placing their forelimbs on a raised horizontal metal bar, and timing the latency to resume a normal posture by stopwatch.\n(§1) All data presented in the Tables below are expressed as the mean results from 4-6 rats per condition, ±S.E.M. Stereotypy is expressed in rating units (maximum=3.0) and activity is expressed in arbitrary units of percent change, derived from EAM counts per unit time, relative to activity in control (saline) animals set at zero."}, "[3]": {"system": "DA in the limbic system (nucleus accumbens septi)", "assay": "Arousal (locomotor activity) induced by DA injected into nucleus accumbens septi", "format": "in vivo, rat", "details": "for activity counts (arousal induced by 16 μg DA in accumbens): 30 min, DA control 238 ± 38", "protocol": "An experiment shown in Table 9 involves testing the effects of S(+) isomers of apomorphine (APO) and N-propylnorapomorphine (NPA) given systemically (intraperitoneally, ip), as well as S(+) methylenedioxy-N-propylnorapomorphine (MDO-NPA) given ip or orally (po, by orogastric intubation). […]. […] Activity was monitored for 30 min after injection of DA into the brain, which was done at 10 min after systemic dosing with an S(+)aporphine test compound.\nData are mean activity counts ± SEM (N = 6) for rats given DA into the\nmedial accumbens after pretreatment with an inhibitor of monoamine oxidas\n(MA0), and monitored on EAM for 30 min (aporphine given 10 min before DA\nsystemicallyintraperitoneally [ip] or orally [po]."}, "[4]": {"system": "dopamine (DA) receptors in the basal ganglia (corpus striatum)", "assay": "Stereotyped licking and gnawing behavior rating in the rat", "format": "in vivo", "source_text": "Stereotypy: The mean stereotyped licking and gnawing behavioral rating scheme developed by Tarsy and Baldessarini^8 was used. […]\nStereotypy scores were rated for one hour as described in […]"}, "[5]": {"system": "DA in the corpus striatum (basal ganglia)", "assay": "Head posture (contralateral head deviation) after intrastriatal DA", "format": "in vivo, rat", "details": "intrastriatal DA 16 μg; aporphine 3 mg/kg systemic (route not given)"}, "[6]": {"system": "dopamine (DA) receptors in the limbic system and basal ganglia", "assay": "Total motor activity, electronic activity monitor (EAM)", "format": "in vivo, rat", "protocol": "(§2) Activity: Overall motor activity was measured by use of the self-recording Stoelting electronic activity monitor method described previously by Stewart, Campbell, Sperk, and Baldessarini^9. Total activity is obtained by setting monitor sensitivity so as to detect both locomotion and small movements (such as grooming, sniffing, and chewing) as would be prominent in stereotyped responses that tend to diminish locomotion and increase sniffing, licking, and chewing movements. Locomotor activity is detected selectively by setting monitor sensitivity to detect large, locomotor movements, and to minimize smaller movements already described.\nas §1\nAll the posttreatment doses of (+)APO were 3.0 mg/kg, s.c. The data\nAll posttreatment doses of (+)NPA were 3 mg/kg, s.c. The data are similar"}, "[7]": {"system": "dopamine (DA) receptors in the limbic system", "assay": "Locomotor activity (spontaneous or aroused by (-)APO / (-)NPA), electronic activity monitor", "format": "in vivo, rat", "details": "for Locomotion: Table 5; for effect on locomotor-arousal activity (in words): with or without (-) isomer, Hydrochloride", "protocol": "as §2\nRats (mean N=6 per condition) were tested for locomotor activity for 60 min following a single dose of (-)APO (0.3 mg/kg, SC), or its vehicle (\"placebo\" condition). The S(+) isomers were administered in a range of doses from 0 or 0.1 to 30 mg/kg, SC immediately following injection of (-)APO or its vehicle. Data are presented in FIG. 2 as mean EAM activity counts per hour SEM. In that figure, the dashed line labeled \"control\" represents the mean activity of rats given vehicle only and no aporphine (SD values are indicated by parallel light lines above and below the control mean).\nTest agents (11substituted-N--propylnoraporphine isomers were given at a\ndose of 3 mg/kg, ip (in 2 ml/kg) just prior to (-)apomorphine (APO, at 0.\nmg/kg, ip, in 1 ml/kg) to rats (N = 6) tested in an electronic activity"}, "[8]": {"target": "T2, Dopamine (DA) sensitive adenylate cyclase (Rattus norvegicus, UniProt P18901)", "T2 construct": "homogenates of rat corpus striatum; from tissue; host or cells: rat corpus striatum homogenate", "T2 sequence (P18901 whole entry)": "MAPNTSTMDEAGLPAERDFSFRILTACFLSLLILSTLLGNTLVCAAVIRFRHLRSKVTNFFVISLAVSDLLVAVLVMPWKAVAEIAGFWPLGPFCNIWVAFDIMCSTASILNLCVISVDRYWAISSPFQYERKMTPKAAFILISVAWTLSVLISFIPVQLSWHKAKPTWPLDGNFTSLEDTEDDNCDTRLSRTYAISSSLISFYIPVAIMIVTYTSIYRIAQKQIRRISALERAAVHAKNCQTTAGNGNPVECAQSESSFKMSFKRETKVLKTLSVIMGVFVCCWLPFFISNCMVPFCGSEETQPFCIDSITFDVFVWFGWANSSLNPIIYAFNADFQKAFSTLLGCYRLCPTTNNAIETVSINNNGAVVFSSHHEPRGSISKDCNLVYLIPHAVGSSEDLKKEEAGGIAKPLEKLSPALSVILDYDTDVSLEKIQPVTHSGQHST", "assay": "Stimulation of formation of cyclic AMP in rat striatal homogenate", "format": "biochemical", "source_text": "assayed in homogenates of corpus striatum obtained from rat brain. The\nmethod of assay of the activity of DAsensitive adenylate cyclase by the\nrate of formation of cAMP above a basal (no agonist) level is described\nunder Experimental Section. The data are mean values of cAMP levels in […]"}, "Dopamine Receptors": {"target": "Dopamine Receptors", "format": "binding, calf", "details": "ligand [3H]ADTN (0.5 nM)"}, "[9]": {"details": "Table 5, (+)NPA 3 mg/kg s.c. after (-)NPA 0.3 mg/kg"}, "[10]": {"details": "Table 5, (+)NPA 3 mg/kg s.c. after (-)NPA 3.0 mg/kg"}, "[11]": {"details": "Table 5, (+)NPA 3 mg/kg s.c., (-)NPA 0"}, "[12]": {"details": "2.5 min, read-out: cAMP production, % of control"}}, "note": "Counter-ions that a name gives are not always drawn.", "data": [{"compound": "CCCN1CCc2cccc3c2[C@@H]1Cc1ccc(O)c(O)c1-3", "note": "[(+)NPA, (S)-N-n-Propylnorapomorphine Hydrochloride]", "values": [{"measurement": "Vmax (range of two experiments)", "setting": "[1]; footnote range", "value": "10.2- 13.2 (pmol/assay)/h"}, {"measurement": "Vmax", "setting": "[1]; mean, substrate of rat liver COMT", "value": "11.7 (pmol/assay)/h"}, {"measurement": "Catalepsy score", "setting": "[2]; 0.1 mg/kg", "value": "0.6 ± 0.1"}, {"measurement": "Catalepsy score", "setting": "[2]; 0.3 mg/kg", "value": "0.4 ± 0.1"}, {"measurement": "Catalepsy score", "setting": "[2]; 3.0 mg/kg", "value": "0.6 ± 0.1"}, {"measurement": "Catalepsy score", "setting": "[2]; 5.0 mg/kg", "value": "0.6 ± 0.1"}, {"measurement": "activity counts (arousal induced by 16 μg DA in accumbens)", "setting": "[3]; 0.3 mg/kg ip", "value": "139 ± 17", "unit": "activity counts"}, {"measurement": "activity counts (arousal induced by 16 μg DA in accumbens)", "setting": "[3]; 1.0 mg/kg ip", "value": "80 ± 11", "unit": "activity counts"}, {"measurement": "activity counts (arousal induced by 16 μg DA in accumbens)", "setting": "[3]; 3.0 mg/kg ip", "value": "54 ± 10", "unit": "activity counts"}, {"measurement": "ED50", "setting": "[3]; Rattus norvegicus, ip, read-out: ID50, ip, DA 16 μg in accumbens", "value": 0.4, "unit": "mg/kg"}, {"measurement": "ID50", "setting": "[3]; ip, DA 16 μg in accumbens, hydrochloride", "value": 0.45, "unit": "mg/kg"}, {"measurement": "times more potent than (+)APO as inhibitor of DA in the limbic system", "setting": "[3]; vs (+)APO", "value": 8, "unit": "times"}, {"measurement": "Stereotyped behavior induced by (-)APO, Percent of Control", "setting": "[4]; (+)NPA 3 mg/kg IP after (-)APO 0.3 mg/kg IP", "value": "100.0 ± 10.6% of Control"}, {"measurement": "Stereotyped behavior induced by (-)APO, Percent of Control", "setting": "[4]; (+)NPA 5 mg/kg IP after (-)APO 0.3 mg/kg IP", "value": "100.0 ± 12.3% of Control"}, {"measurement": "Stereotyped behavior induced by (-)APO, Percent of Control", "setting": "[4]; (+)NPA 30 mg/kg IP after (-)APO 0.3 mg/kg IP", "value": "102.6 ± 8.9% of Control"}, {"measurement": "Stereotypy Score", "setting": "[4]; Table 1, (+)NPA 5 mg/kg s.c. ± (-)APO 3 mg/kg s.c. (printed first: (+)NPA), maximum 3.0", "value": "2.9 ± 0.1", "unit": "rating units"}, {"measurement": "Stereotypy Score", "setting": "[4]; Table 1, (+)NPA 5 mg/kg s.c. ± (-)NPA 3 mg/kg s.c. (printed first: (+)NPA), maximum 3.0", "value": "2.9 ± 0.2", "unit": "rating units"}, {"measurement": "Stereotypy Score", "setting": "[4]; Table 1, (+)NPA 5 mg/kg, s.c., ± saline, maximum 3.0", "value": "0.0 ± 0.0", "unit": "rating units"}, {"measurement": "Stereotypy Score", "setting": "[4]; Table 1, (-)APO 3 mg/kg s.c. ± (+)NPA 5 mg/kg s.c. (printed first: (-)APO), maximum 3.0", "value": "2.9 ± 0.1", "unit": "rating units"}, {"measurement": "Stereotypy Score", "setting": "[4]; Table 1, (-)NPA 3 mg/kg s.c. ± (+)NPA 5 mg/kg s.c. (printed first: (-)NPA), maximum 3.0", "value": "3.0 ± 0.0", "unit": "rating units"}, {"measurement": "Stereotypy Score", "setting": "[4]; Table 3, 0.1 mg/kg, s.c., maximum 3.0", "value": 0, "unit": "rating units"}, {"measurement": "Stereotypy Score", "setting": "[4]; Table 3, 0.3 mg/kg, s.c., maximum 3.0", "value": 0, "unit": "rating units"}, {"measurement": "Stereotypy Score", "setting": "[4]; Table 3, 3.0 mg/kg, s.c., maximum 3.0", "value": 0, "unit": "rating units"}, {"measurement": "Stereotypy Score", "setting": "[4]; Table 3, 5.0 mg/kg, s.c., maximum 3.0", "value": 0, "unit": "rating units"}, {"measurement": "Stereotypy Score", "setting": "[4]; [9]", "value": "1.7 ± 0.6", "unit": "rating units"}, {"measurement": "Stereotypy Score", "setting": "[4]; [10]", "value": "2.9 ± 0.8", "unit": "rating units"}, {"measurement": "Stereotypy Score", "setting": "[4]; [11]", "value": 0, "unit": "rating units"}, {"measurement": "stereotyped behavior (in words)", "setting": "[4]; rat, in vivo", "value": "little effect on stereotyped gnawing"}, {"measurement": "Contralateral Head Deviation, Percent of Total", "setting": "[5]", "value": "66.7% of Total"}, {"measurement": "Contralateral Head Deviation, Time", "setting": "[5]", "value": "480 ± 44", "unit": "s"}, {"measurement": "Total Activity", "setting": "[6]; Table 3, 0.1 mg/kg, s.c.", "value": "3.2 ± 1.1 percent change vs. placebo con"}, {"measurement": "Total Activity", "setting": "[6]; Table 3, 0.3 mg/kg, s.c.", "value": "-5.2 ± 3.1 percent change vs. placebo con"}, {"measurement": "Total Activity", "setting": "[6]; Table 3, 3.0 mg/kg, s.c.", "value": "-50.0 ± 18 percent change vs. placebo con"}, {"measurement": "Total Activity", "setting": "[6]; Table 3, 5.0 mg/kg, s.c.", "value": "-52.1 ± 21 percent change vs. placebo con"}, {"measurement": "Total Activity", "setting": "[6]; [9]", "value": "18.8 ± 2.6", "unit": "percent change"}, {"measurement": "Total Activity", "setting": "[6]; [10]", "value": "156.7 ± 26", "unit": "percent change"}, {"measurement": "Total Activity", "setting": "[6]; [11]", "value": 0, "unit": "percent change"}, {"measurement": "Locomotion", "setting": "[7]; (+)NPA 3 mg/kg s.c. after (-)NPA 0.3 mg/kg", "value": "14.8 ± 2.6", "unit": "percent change"}, {"measurement": "Locomotion", "setting": "[7]; (+)NPA 3 mg/kg s.c. after (-)NPA 3.0 mg/kg", "value": "8.5 ± 0.6", "unit": "percent change"}, {"measurement": "Locomotion", "setting": "[7]; (+)NPA 3 mg/kg s.c., (-)NPA 0", "value": 0, "unit": "percent change"}, {"measurement": "ID50 to reduce the locomotor activating actions of (-)APO", "setting": "[7]; s.c., (-)APO 0.3 mg/kg", "value": 0.2, "unit": "mg/kg"}, {"measurement": "ID50, spontaneous locomotor arousal", "setting": "[7]; spontaneous activity", "value": 3, "unit": "mg/kg"}, {"measurement": "effect on locomotor-arousal activity (in words)", "setting": "[7]", "value": "dose-dependent inhibition of such activity of the R(-) aporphine"}, {"measurement": "effect on locomotor-arousal activity (in words)", "setting": "[7]; listed as (+)-N-n-propylnorapomorphine", "value": "marked motor-inhibitory effect"}, {"measurement": "cAMP production", "setting": "[8]; 10 μM", "value": "2.95 ± 0.19", "unit": "picomoles per 2.5 min"}, {"measurement": "cAMP production", "setting": "[8]; 100 μM", "value": "3.19 ± 0.16", "unit": "picomoles per 2.5 min"}, {"measurement": "cAMP formation, % of control at 10 µM", "setting": "[8]; [12]", "value": 119, "unit": "%"}, {"measurement": "cAMP formation, % of control at 100 µM", "setting": "[8]; [12]", "value": 129, "unit": "%"}, {"measurement": "IC50", "setting": "Dopamine Receptors", "value": 60, "unit": "nM"}]}]}
